Experimental data: article PMC5037430 (Scientific Reports, 2016)
Where two headings read alike, the source gives them in different places.

Molecular target: T1, glycolate oxidase (GO); hydroxyacid oxidase 1 (HAO1) (Homo sapiens, UniProt Q9UJM8)
T1 construct: recombinant full-length human HAO1
T1 sequence (Q9UJM8 1-370): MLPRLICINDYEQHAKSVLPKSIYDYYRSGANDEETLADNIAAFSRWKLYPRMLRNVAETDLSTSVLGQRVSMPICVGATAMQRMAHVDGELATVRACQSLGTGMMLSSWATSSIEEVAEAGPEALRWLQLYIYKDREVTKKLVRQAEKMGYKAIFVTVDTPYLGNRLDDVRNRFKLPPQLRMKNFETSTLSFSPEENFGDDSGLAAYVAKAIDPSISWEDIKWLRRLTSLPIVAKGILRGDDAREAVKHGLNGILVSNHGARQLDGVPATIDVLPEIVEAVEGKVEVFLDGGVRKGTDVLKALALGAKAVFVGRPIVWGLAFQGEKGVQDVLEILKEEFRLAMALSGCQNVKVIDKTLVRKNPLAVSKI
Assay: hydrogen peroxide-Amplex red GO enzymatic assay; partial inhibition, less than […] at […]
Assay type: biochemical

Row | IC50 (read-out: IC50) [µM] | SMILES | IC50 [µM]
1 | > 100 | CC[C@H](NC(=O)c1c(C)c(-c2ccccc2)nc2ccccc12)c1ccccc1 [SB 222200] | 
2 |  | CCCc1nc2c(C)cc(-c3nc4ccccc4n3C)cc2n1Cc1ccc(-c2ccccc2C(=O)O)cc1 [Telmisartan] | > 100
